The source of these data is paper PMC6010107, “Identification of new allosteric sites and modulators of AChE through computational and experimental tools” (Journal of Enzyme Inhibition and Medicinal Chemistry, 2018).

For test [1], the target named is T1, AChE (Cholinesterase, acetyl human recombinant) (Homo sapiens, UniProt P22303).
T1 construct: purchased Sigma Chemical Co., Madrid, Spain
Briefly: biochemical. It is filed as biochemical. The protocol:
(§1) The method was adapted from Ellman et al.[47] The assay solution consisted of 0.1 M phosphate buffer pH 8, […] 5,5′-dithiobis(2-nitrobenzoic acid) (DTNB, Ellman’s reagent), 0.05 unit/ml AChE (Sigma Chemical Co., Madrid, Spain, Cholinesterase, acetyl human recombinant), and […] acetylthiocholine iodide as the substrate of the enzymatic reaction. The compounds tested were added to the assay solution and the absorbance changes at 412 nm were recorded for 5 min with a UV/Vis Microplate and cuvette Spectrophotometer, Thermo Electron Type, Multiskan Spectrum. The reaction rates were compared, and the per cent inhibition due to the presence of test compounds was calculated. […] All the experiments were performed in triplicate.

The target in test [2] is T2, AChE (Homo sapiens, UniProt P22303).
T2 construct: purchased Sigma Chemical Co., Madrid, Spain
T2 sequence (P22303 32-614): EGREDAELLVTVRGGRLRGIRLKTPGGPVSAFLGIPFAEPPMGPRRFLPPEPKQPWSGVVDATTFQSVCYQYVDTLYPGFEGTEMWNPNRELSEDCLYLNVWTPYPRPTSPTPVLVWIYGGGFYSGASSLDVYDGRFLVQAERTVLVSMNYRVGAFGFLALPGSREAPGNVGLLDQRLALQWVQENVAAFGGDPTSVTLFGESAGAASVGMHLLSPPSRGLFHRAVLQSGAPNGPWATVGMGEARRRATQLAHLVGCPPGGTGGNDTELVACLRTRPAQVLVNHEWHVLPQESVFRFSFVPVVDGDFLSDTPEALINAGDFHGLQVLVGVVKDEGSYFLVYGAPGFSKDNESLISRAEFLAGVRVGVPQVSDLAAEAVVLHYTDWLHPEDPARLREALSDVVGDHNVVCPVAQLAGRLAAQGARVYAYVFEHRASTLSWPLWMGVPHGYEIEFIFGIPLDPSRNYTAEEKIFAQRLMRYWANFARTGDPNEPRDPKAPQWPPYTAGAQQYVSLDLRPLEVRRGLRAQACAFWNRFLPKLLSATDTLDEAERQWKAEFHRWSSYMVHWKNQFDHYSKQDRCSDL
The test is described as follows: Kinetic study of AChE inhibition (Lineweaver-Burk). As to conditions: Lineweaver-Burk plots, four substrate and three inhibitor concentrations. In kind it is biochemical. The procedure: To investigate the mechanism of action of the compounds on AChE, a kinetic analysis was performed. The experiments were carried out using combinations of four substrate concentrations, and three inhibitor concentrations. Double-reciprocal Lineweaver–Burk plotting of the data obtained, in which each point is mean of three different experiments, were analysed.
Mixed inhibitors cause intersects above or below the x-axis.

Test [3] concerns the target T2, AChE. Briefly: AChE inhibition in presence of the competitive inhibitor JTE-907 (cooperative activities). More on the design: key to ΔISC035 (combination minus SC035 alone): difference in % AChE inhibition (combination minus SC035 alone). As to conditions: for Effect of combining with JTE-907 on AChE inhibition: sum of activities with JTE-907. In kind it is biochemical. The procedure:
as §1
Clearly, both compounds bind to AChE at an allosteric site. […] If our hypothesis is right, the binding of VP2.33 and SC035 to the allosteric site 3 in presence of JTE-907 should show a cooperative behaviour in terms of inhibition of the AChE.

The target in test [4] is T2, AChE. As to conditions: cited from earlier work.
Setting [5] is: Table 4, compounds selected to bind site 3, read-out: IC50.
Setting [6] is: compound alone, read-out: Individual inhibition of AChE.
Setting [7] is: Table S1 first grid, JTE907 2.5 μM + SC035 25 μM.
Where [8] appears, read: Table S1 first grid, JTE907 5 μM + SC035 50 μM.
Where [9] appears, read: Table S1 first grid, JTE907 20 μM + SC035 25 μM.
Where [10] appears, read: Table S1 first grid, JTE907 20 μM + SC035 50 μM.
[11] abbreviates: Table S1 second grid, SC035 25 μM + JTE907 5 μM.
Where [12] appears, read: Table S1 second grid, SC035 50 μM + JTE907 2.5 μM.
The mark [13] stands for this setting: Table S1 second grid, SC035 50 μM + JTE907 5 μM.
The mark [14] stands for this setting: Table S1 second grid, SC035 70 μM + JTE907 2.5 μM.
Where [15] appears, read: Table S1 second grid, SC035 70 μM + JTE907 5 μM.

Where two headings read alike, the source gives them in different places.

T1 sequence (P22303 32-614): as above

For orientation: IC50 means the concentration at which inhibition is half-maximal. With `NC1=NC(=O)C2N=C(c3ccccc3)C(c3ccccc3)=NC2=N1` (stereo not drawn) [SC251], the 50% inhibitory concentration (IC50) in test [1] (Table 3, compounds selected to bind site 2, read-out: IC50) is 2.76 ± 0.25 µM. For the same compound, the “Mechanism of inhibition versus substrate ACh” value at AChE [2] is listed as “non-competitive-mixed”.
Broadly, the inhibition is the change of the read-out against control, counted positive when it falls. As to `OCCNc1nc(-c2cccc3ccccc23)[n+](-c2ccccc2)s1` [VP2.33], in test [1] (setting [5]), the IC50 was 49.6 ± 1.5 µM. Moreover, the “ΔIVP2.33 (combination minus VP2.33 alone)” value on AChE [3] (JTE907 5 μM + VP2.33 50 μM) was “ΔIVP2.33 = 17.16”; on AChE [3] (JTE907 10 μM + VP2.33 25 μM) it was “ΔIVP2.33 = 41.29”; at AChE [3] (JTE907 10 μM + VP2.33 50 μM) it was “ΔIVP2.33 = 27.71”; on AChE [3] (JTE907 20 μM + VP2.33 25 μM) it was “ΔIVP2.33 = 53.48”; at AChE [3] (JTE907 20 μM + VP2.33 50 μM), “ΔIVP2.33 = 32.35”. Besides, the inhibition at 25 µM on AChE [3] (setting [6]) came to 27.3%. Further, on AChE [3] (setting [6]), the inhibition at 50 µM was determined as 57.7%. Besides, the “Effect of combining with JTE-907 on AChE inhibition” value on AChE [3] is listed as “an effect of cooperative activities”. For the same compound, the “Mechanism of inhibition versus substrate ACh” value at AChE [2] is listed as “non-competitive inhibition”.
On to `O=C(CN1CCCC1)NN1c2ccccc2Sc2ccc(Cl)cc21` [SC035], for which, in test [1] (setting [5]), the IC50 is 42.1 ± 4.3 µM. The “ΔISC035 (combination minus SC035 alone)” value is on record as -6,74 at AChE [3] (setting [7]); 2,26 on AChE [3] (Table S1 first grid, JTE907 5 μM + SC035 25 μM); -4,98 at AChE [3] (setting [8]); 19,99 on AChE [3] (setting [9]); 3,72 on AChE [3] (setting [10]); 5,67 at AChE [3] (setting [11]). Besides, the “ΔISC035 (combination minus SC035 alone)” value is given as -10,72 on AChE [3] (setting [12]), -7,3 on AChE [3] (setting [13]), -13,21 at AChE [3] (setting [14]) and -20,77 on AChE [3] (setting [15]). In addition, the inhibition at 25 µM on AChE [3] (setting [6]) was determined as 42.3%. Further, the inhibition at 50 µM at AChE [3] (setting [6]) was found to be 58.7%. For the same compound, the inhibition at 70 µM on AChE [3] (compound alone, 70 μM, read-out: Individual inhibition of AChE) is 75.3%. At AChE [3], the “Effect of combining with JTE-907 on AChE inhibition” value is reported as “no addition of activities”. Besides, the “Mechanism of inhibition versus substrate ACh” value on AChE [2] is “non-competitive inhibition”.
Consider `O=C(/C=C/c1ccc(O)c(O)c1)O[C@H](Cc1ccc(O)c(O)c1)C(=O)O` [Rosmarinic acid, reference compound], for which the IC50 in test [1] (IC50 (μM), Table 3, compounds selected to bind site 2) is more than 10 µM. In addition, in test [1] (read-out: % of inhibition at 10 μM), the inhibition at 10 µM is 26%.
Consider `CCCCCOc1c(OC)ccc2cc(C(=O)NCc3ccc4c(c3)OCO4)c(=O)[nH]c12` [JTE907, reference compound], for which the “ΔIJTE907 (combination minus JTE907 alone)” value is “ΔIJTE907 = 19.86” on AChE [3] (JTE907 5 μM + VP2.33 25 μM); “ΔIJTE907 = 44.53” on AChE [3] (JTE907 5 μM + VP2.33 50 μM); “ΔIJTE907 = 11.79” on AChE [3] (JTE907 10 μM + VP2.33 25 μM); “ΔIJTE907 = 15.66” on AChE [3] (JTE907 20 μM + VP2.33 25 μM); “ΔIJTE907 = 24.96” at AChE [3] (JTE907 20 μM + VP2.33 50 μM); 21,5 at AChE [3] (setting [7]). Moreover, the “ΔIJTE907 (combination minus JTE907 alone)” value on AChE [3] (Table S1 first grid, JTE907 2.5 μM + SC035 50 μM) was 33; at AChE [3] (setting [8]), 19,52; at AChE [3] (setting [9]), -3,46; on AChE [3] (setting [10]), -3,34; at AChE [3] (Table S1 second grid, SC035 25 μM + JTE907 2.5 μM), 18,41; at AChE [3] (setting [11]), 13,78. Moreover, the “ΔIJTE907 (combination minus JTE907 alone)” value on AChE [3] (setting [12]) is 33,91; at AChE [3] (setting [13]), 17,2; on AChE [3] (setting [14]), 48,02; on AChE [3] (setting [15]), 20,33. Also, the “Individual inhibition of AChE” value at AChE [3] (compound alone, 2.5 μM) is 14,09±2,85%; at AChE [3] (compound alone, 5 μM), 34,22±1,13% and JTE907 5μM (30.34 ± 2.85%); at AChE [3] (compound alone, 10 μM), “JTE907 10 μM (56.78 ± 1.35%)”; at AChE [3] (compound alone, 20 μM) it was 65,78±2,37% and JTE907 20 μM (65.10 ± 2.37%). The “Mechanism of AChE inhibition” value at AChE [4] was “pure competitive inhibitor”.
